Data on seven molecules can be found in ChEMBL document CHEMBL4014351, “Discovery of Allosteric Inhibitors Targeting the Spliceosomal RNA Helicase Brr2” (J Med Chem, 2017).

In brackets after ≈: the same amount, converted by molar mass.

Data set [1] can be described thus: physchem. To be noted: 1-octanol/aqueous buffer, pH 7.4.
Data set [2] can be described thus: physchem. To be noted: PAMPA, pH 7.4. On the technique in general: PAMPA measures passive passage across an artificial lipid membrane.
Description: Permeability of the compound at 10 uM at pH 7.4 after 3 hrs by PAMPA
A short description of data set [3]: physchem. To be noted: aqueous buffer, pH 6.8.
Description: Solubility of the compound in pH 6.8 aqueous buffer by UV absorbance method
Data set [4] concerns the target T1, U5 small nuclear ribonucleoprotein 200 kDa helicase (Homo sapiens, UniProt O75643). Description: biochemical.
The target of data set [5] is Eukaryotic initiation factor 4A-III (Homo sapiens, UniProt P38919).
Chain of Eukaryotic initiation factor 4A-III (P38919 whole entry): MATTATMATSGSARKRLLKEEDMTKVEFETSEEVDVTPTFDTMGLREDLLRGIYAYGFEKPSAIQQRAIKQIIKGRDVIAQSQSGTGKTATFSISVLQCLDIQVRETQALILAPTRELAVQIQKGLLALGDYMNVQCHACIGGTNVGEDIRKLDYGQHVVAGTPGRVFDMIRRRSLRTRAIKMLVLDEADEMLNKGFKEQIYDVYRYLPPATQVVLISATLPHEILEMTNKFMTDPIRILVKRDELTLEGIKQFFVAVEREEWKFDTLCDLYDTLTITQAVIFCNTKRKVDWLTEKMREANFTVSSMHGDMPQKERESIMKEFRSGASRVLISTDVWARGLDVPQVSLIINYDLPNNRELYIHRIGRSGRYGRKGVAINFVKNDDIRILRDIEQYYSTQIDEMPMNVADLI
Description: Inhibition of MLN51-induced full length recombinant human N-terminal His6/SUMO-tagged eIF4A3 RNA dependent ATPase activity expressed in Escherichia coli BL21(DE3) using single stranded poly(U) RNA as substrate after 30 mins by ADP-Glo luminescence assay
Data set [6] addresses Eukaryotic initiation factor 4A-I (Homo sapiens, UniProt P60842).
Description: Inhibition of eIF4G-induced full length recombinant human N-terminal His6/SUMO-tagged eIF4A1 RNA dependent ATPase activity expressed in Escherichia coli BL21(DE3) using single stranded poly(U) RNA as substrate after 30 mins by ADP-Glo luminescence assay
The target in data set [7] is T1, U5 small nuclear ribonucleoprotein 200 kDa helicase. Description: biochemical. This is another data set of the same source.
Description: Inhibition of full length recombinant human N-terminal His-tagged BRR2 RNA dependent ATPase activity expressed in baculovirus infected Sf9 cells using single stranded poly(U) RNA as substrate after 30 mins by ADP-Glo luminescence assay
The target in data set [8] is T2, ATP-dependent RNA helicase DHX29 (Homo sapiens, UniProt Q7Z478).
T2 sequence (Q7Z478 whole entry): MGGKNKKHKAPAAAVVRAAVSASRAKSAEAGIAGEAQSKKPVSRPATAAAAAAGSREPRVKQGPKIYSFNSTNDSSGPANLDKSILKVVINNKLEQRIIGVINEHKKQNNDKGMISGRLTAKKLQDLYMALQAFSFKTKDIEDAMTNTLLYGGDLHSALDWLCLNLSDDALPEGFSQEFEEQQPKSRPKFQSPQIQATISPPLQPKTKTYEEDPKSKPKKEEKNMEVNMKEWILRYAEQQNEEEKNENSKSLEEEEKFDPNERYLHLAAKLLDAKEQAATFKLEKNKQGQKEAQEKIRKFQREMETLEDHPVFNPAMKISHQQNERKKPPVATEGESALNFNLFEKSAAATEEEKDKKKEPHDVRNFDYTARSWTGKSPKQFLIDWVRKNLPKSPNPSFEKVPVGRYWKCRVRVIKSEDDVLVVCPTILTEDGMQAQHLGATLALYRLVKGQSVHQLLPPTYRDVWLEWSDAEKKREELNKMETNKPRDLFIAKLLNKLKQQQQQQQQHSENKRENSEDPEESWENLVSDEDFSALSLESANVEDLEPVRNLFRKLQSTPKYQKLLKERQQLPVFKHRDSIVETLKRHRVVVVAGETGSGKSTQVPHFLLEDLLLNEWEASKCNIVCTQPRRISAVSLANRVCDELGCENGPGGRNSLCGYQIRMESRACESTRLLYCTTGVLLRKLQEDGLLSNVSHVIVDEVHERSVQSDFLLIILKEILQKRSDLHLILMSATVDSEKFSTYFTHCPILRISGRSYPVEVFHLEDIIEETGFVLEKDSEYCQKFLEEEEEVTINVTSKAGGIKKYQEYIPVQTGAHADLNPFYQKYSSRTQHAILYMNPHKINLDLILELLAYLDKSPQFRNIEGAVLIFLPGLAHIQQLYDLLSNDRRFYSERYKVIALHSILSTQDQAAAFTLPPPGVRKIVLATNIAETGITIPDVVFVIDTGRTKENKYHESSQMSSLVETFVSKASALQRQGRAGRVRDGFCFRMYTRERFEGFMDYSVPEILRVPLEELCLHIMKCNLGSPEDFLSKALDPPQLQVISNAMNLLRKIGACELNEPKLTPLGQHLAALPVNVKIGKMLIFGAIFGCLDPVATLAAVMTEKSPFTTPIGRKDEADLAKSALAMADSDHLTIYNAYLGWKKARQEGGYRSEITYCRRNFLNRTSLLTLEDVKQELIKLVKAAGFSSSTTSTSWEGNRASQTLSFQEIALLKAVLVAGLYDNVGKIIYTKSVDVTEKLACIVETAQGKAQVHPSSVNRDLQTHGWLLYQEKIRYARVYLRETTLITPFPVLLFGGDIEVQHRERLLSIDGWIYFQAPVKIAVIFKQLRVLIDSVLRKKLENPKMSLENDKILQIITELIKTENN
Description: biochemical.
Description: Inhibition of full length recombinant human N-terminal FLAG-His-tagged DHX29 RNA dependent ATPase activity expressed in baculovirus infected Sf9 insect cells using single stranded poly(U) RNA as substrate after 30 mins by ADP-Glo luminescence assay

T1 sequence (O75643 whole entry): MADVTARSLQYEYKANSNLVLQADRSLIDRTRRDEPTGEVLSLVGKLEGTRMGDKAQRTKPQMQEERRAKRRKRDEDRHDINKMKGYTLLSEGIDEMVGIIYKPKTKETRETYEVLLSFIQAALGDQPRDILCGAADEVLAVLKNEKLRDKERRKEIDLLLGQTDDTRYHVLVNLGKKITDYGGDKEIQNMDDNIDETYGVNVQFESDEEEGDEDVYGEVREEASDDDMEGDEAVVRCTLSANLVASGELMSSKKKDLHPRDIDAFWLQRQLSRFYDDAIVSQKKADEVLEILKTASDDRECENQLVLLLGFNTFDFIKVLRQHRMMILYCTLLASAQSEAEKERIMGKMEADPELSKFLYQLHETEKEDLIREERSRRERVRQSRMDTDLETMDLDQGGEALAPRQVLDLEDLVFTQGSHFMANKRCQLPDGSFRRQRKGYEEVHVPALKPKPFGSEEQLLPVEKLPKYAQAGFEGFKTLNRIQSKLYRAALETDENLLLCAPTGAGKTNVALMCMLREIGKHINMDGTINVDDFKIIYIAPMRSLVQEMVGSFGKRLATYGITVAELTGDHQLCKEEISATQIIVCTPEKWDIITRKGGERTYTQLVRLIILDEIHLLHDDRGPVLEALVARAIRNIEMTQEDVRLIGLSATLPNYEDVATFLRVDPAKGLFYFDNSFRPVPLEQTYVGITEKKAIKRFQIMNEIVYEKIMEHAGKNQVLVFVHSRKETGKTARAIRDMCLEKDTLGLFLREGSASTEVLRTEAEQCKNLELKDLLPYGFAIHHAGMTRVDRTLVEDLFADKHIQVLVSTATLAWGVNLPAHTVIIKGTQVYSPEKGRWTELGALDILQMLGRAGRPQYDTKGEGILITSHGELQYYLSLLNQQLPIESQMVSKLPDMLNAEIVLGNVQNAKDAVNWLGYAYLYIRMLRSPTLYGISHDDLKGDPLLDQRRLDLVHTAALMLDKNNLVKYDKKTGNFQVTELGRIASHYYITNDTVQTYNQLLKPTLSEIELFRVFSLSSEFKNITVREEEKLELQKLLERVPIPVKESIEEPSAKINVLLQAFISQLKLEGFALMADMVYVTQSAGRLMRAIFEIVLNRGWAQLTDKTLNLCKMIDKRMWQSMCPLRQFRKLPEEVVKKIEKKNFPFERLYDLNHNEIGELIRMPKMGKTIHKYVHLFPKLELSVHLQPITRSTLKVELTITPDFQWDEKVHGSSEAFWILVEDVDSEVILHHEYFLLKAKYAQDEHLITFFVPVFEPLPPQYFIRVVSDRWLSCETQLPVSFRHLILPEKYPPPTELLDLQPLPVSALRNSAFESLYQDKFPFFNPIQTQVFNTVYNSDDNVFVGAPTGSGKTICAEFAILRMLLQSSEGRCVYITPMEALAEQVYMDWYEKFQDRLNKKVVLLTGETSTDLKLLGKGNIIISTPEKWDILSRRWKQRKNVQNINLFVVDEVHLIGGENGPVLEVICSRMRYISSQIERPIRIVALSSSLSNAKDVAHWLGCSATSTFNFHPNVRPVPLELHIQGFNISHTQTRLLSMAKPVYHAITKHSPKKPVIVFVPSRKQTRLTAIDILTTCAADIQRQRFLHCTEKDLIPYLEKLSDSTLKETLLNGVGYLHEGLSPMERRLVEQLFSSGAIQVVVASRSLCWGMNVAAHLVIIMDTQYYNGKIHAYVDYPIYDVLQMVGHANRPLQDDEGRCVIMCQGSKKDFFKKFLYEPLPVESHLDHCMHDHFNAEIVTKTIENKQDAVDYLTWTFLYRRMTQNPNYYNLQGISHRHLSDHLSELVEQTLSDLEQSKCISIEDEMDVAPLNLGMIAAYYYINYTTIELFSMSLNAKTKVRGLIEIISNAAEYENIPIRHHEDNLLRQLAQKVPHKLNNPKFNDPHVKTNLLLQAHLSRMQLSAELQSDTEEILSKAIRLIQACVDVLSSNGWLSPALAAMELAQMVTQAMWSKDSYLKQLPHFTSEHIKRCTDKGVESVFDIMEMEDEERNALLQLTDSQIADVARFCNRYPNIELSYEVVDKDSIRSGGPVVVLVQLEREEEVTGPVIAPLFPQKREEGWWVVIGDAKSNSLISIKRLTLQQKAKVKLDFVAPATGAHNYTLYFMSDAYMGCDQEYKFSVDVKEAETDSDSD
Chain of Eukaryotic initiation factor 4A-I (P60842 whole entry): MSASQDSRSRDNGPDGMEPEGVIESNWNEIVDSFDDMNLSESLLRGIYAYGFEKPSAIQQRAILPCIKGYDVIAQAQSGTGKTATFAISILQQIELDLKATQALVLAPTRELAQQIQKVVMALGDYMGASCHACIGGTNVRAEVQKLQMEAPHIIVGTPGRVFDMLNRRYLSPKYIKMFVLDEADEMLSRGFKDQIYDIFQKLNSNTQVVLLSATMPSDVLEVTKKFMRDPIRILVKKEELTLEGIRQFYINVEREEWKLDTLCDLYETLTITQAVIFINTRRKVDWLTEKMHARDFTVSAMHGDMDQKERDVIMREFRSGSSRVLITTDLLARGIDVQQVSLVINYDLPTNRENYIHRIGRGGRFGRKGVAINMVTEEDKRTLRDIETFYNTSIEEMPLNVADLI

Consider `O=C1Nc2cc(=O)n(Cc3ccccc3)cc2CN1c1cccc(OCc2ccccn2)c1`, for which the chromatographic logD (as a rule, lipophilicity estimated from chromatographic retention) in the data set “physchem [1]” is 2. For the same molecule, the Papp – broadly, the rate of passage across a membrane or cell layer, normalised by area and donor concentration – at 3 h, 10 µM in “physchem [2]” worked out at 27.3 ×10⁻⁶ cm/s. In addition, the solubility – broadly, how much of the substance goes into solution per volume – in the data set “physchem [3]” came out at 69 µg/mL (≈ 157 µM).

For the molecule `O=C1Nc2cc(=O)n(Cc3ccccc3)cc2CN1c1cccc(OCc2cncs2)c1`, the 50% inhibitory concentration (IC50) – broadly, the concentration that gives 50% inhibition – in data set [4] is 1.3 µM; in data set [5] it was above 100 µM; in data set [6] it was above 100 µM; in data set [7], 0.079 µM; in data set [8] it was above 100 µM. In addition, the chromatographic logD in “physchem [1]” came to 1.7. In “physchem [2]”, this molecule gave a Papp at 3 h, 10 µM of 13.1 ×10⁻⁶ cm/s. This molecule gave a solubility in “physchem [3]” of 49 µg/mL (≈ 110 µM).

`N=C1/C(=C/c2ccc(-c3cccc(C(=O)O)c3)o2)C(=O)N=C2SC(C3CCCCC3)=NN12`: the IC50 came to 32 µM in data set [5], 57 µM in data set [6], 5.3 µM in data set [7] and 58 µM in data set [8].

For the molecule `O=C1Nc2cc(=O)n(Cc3ccccc3)cc2CN1c1cccc(OCc2cccnc2)c1`, the IC50 is above 100 µM in data set [5], above 100 µM in data set [6] and 0.18 µM in data set [7]. This molecule also registered a chromatographic logD in “physchem [1]” of 1.9. This molecule also registered a Papp at 3 h, 10 µM in “physchem [2]” of 14.2 ×10⁻⁶ cm/s. The same molecule registered a solubility in “physchem [3]” of 59 µg/mL (≈ 135 µM).

For `Cc1cc2c(cc1N1Cc3cn(Cc4ccccc4)c(=O)cc3N(C)C1=O)OC(c1ncccc1F)CC2` (racemic), the IC50 in data set [7] is above 100 µM.

For the molecule `Cc1cc2c(cc1N1Cc3cn(Cc4ccccc4)c(=O)cc3NC1=O)OC(c1ncccc1F)CC2` (racemic), the IC50 in data set [5] is above 100 µM; in data set [6] it was above 100 µM; in data set [7], 5.3 µM; in data set [8] it was above 100 µM.

For `Cc1cc2c(cc1N1Cc3cn(C)c(=O)cc3NC1=O)OC(c1ncccc1F)CC2` (racemic), the IC50 in data set [7] was above 100 µM.
